# Results as given in patent US6890708B2, “Method for improving the quality of sperm for artificial insemination of animals” (priority 2000, dated 2005).
# Columns and labels:
# boar spermatozoa [1] = assay: Sperm viability in vitro (motility, acrosome morphology), Example I; assay type: cell-based, pig
# sows = assay: Example III Series 2: embryos and accessory sperm after insemination of sows; assay type: in vivo, pig
# Procedure: Series 2: Batches of sows (parity 2-13) received hCG at 84 hours after weaning. The sows were inseminated at 16 hours after hCG administration (on average 26 hours, ranging from 21-28 hours, before ovulation as observed by transrectal ultrasonography) or inseminated at 4 hours after ovulation. […] The sows were slaughtered at 115 (112-120) hours after ovulation. The embryos were flushed, examined morphologically, and the number of accessory sperm were counted.
# boar spermatozoa [2] = assay: Sperm viability in vitro (motility, acrosome morphology), Example I; assay type: cell-based, pig; remark: listed apart in the source
# Procedure: Aliquots of 80 μl of the PMN suspension (see, PMN isolation and preparation of PMNs) in TM or TM-s, with either intact or inactivated complement, were transferred to a 96-well polystyrene microtest plate. To each well, 20 μl of sperm suspension (see, preparation of semen samples) was added and the microtest plate was placed in a humidified incubator at 38° C. with 5% CO2 in air. […] The samples were incubated with gentle swirling on a test plate shaker. After 15, 30, 45, 60 or 90 min., samples were quantitatively transferred into tubes containing an equal volume of 40 mg ml^−1 heparin (Sigma) in PBS. The heparin facilitates dissociation of agglutinated PMNs. The samples were thoroughly mixed, left for 15 min., and mixed again. Subsamples of 75 μl were fixed by addition of 25 μl of 2% (v/v) glutaraldehyde (Fluka, Brunschwig chemie, Amsterdam, The Netherlands) in PBS. “Blank” samples, i.e., sperm without PMNs (80 μl TM-s mixed with 20 μl sperm suspension), were incubated in parallel to monitor sperm survival during the treatment. “Reference” samples, i.e., frozen-thawed (killed) semen, were incubated in parallel with the PMNs as a reference for the phagocytotic activity of the PMNs. The frozen-thawed semen was taken from a large stock of semen from one ejaculate and washed 3 times in PBS prior to use.
# For evaluation of phagocytosis, wet mounts of the fixed samples were examined with a combination of phase-contrast and fluorescence microscopy (Olympus BH2, Tokyo, Japan) at 400× magnification. The mounts enabled observation and counting of fluorescently labeled spermatozoa inside and outside the phagocytes. By focusing at different levels in the mount, spermatozoa that were located above or below the PMN could be distinguished from those that were phagocytosed. […] Two hundred spermatozoa were evaluated and classified as inside or outside the PMN (i.e., phagocytosed or not phagocytosed). The same fixed mounts were used to assess the acrosome morphology of the non-phagocytosed spermatozoa at the moment of fixation. One hundred cells were classified using phase-contrast microscopy at 400× magnification, as NAR (normal apical ridge), NAR' (slightly altered normal apical ridge), DAR (damaged apical ridge), MAR (missing apical ridge) and LAC (loose acrosomal cap), as described by Pursel et al. (Pursel V G, Schulman L L and Johnson L A, 1978, Distribution and morphology of fresh and frozen-thawed sperm in the reproductive tract of gilts after insemination Biology of Reproduction 19 69-76.)
# [3] = Exp. 1, after adding active compound and pre-incubation 30 min. at 38° C.
# [4] = Exp. 2, 0.2 mM, after adding active compound, without pre-incubation
# [5] = Exp. 3, 1 mM, after pre-incubation of sperm 30 min. at 38° C.
# [6] = Exp. 1, blank samples without PMN, phagocytosis time 60 min.
# [7] = Exp. 1, blank samples without PMN, preincubated 30 min. at 38° C., phagocytosis time 30 min.
# [8] = Exp. 2, 0.2 mM, blank samples without PMN, without pre-incubation, phagocytosis time 30 min.
# [9] = Exp. 2, 0.5 mM, after adding active compound, after pre-incubation
# [10] = Exp. 2, 0.5 mM, after adding active compound, without pre-incubation
# [11] = Exp. 2, 0.5 mM, blank samples without PMN, after pre-incubation
# [12] = Exp. 2, 0.5 mM, blank samples without PMN, without pre-incubation, phagocytosis time 30 min.
# [13] = Exp. 2, 1 mM, after adding active compound, after pre-incubation
# [14] = Exp. 2, 1 mM, after adding active compound, without pre-incubation
# [15] = Exp. 2, 1 mM, blank samples without PMN, after pre-incubation
# [16] = Exp. 2, 1 mM, blank samples without PMN, without pre-incubation, phagocytosis time 30 min.
# [17] = Exp. 2, 2 mM, after adding active compound, after pre-incubation
# [18] = Exp. 2, 2 mM, after adding active compound, without pre-incubation
# [19] = Exp. 2, 2 mM, blank samples without PMN, after pre-incubation
# [20] = Exp. 2, 2 mM, blank samples without PMN, without pre-incubation, phagocytosis time 30 min.
# [21] = Exp. 3, 1 caffeine, blank samples without PMN, after pre-incubation at 38° C., phagocytosis time 30 min.
smiles,measurement,setting,value
"Cn1c(=O)c2c(ncn2C)n(C)c1=O [caffeine, 1,3,7-Trimethylxanthine]",% motile sperm,boar spermatozoa [1]; [3],60%
same,% NAR,boar spermatozoa [1]; [4],84%
same,% motile sperm,boar spermatozoa [1]; [5],65%
same,"% fertilized oocytes, in words",sows,tended to be higher
same,% DAR,boar spermatozoa [2]; [3],30%
same,% LAC,boar spermatozoa [2]; [3],15%
same,% MAR,boar spermatozoa [2]; [3],02%
same,% NAR,boar spermatozoa [2]; [3],53%
same,% LAC,boar spermatozoa [2]; [6],22%
same,% MAR (second value of NAR-MAR-MAR-LAC),boar spermatozoa [2]; [6],36%
same,% MAR (third value of NAR-MAR-MAR-LAC),boar spermatozoa [2]; [6],05%
same,% NAR,boar spermatozoa [2]; [6],37%
same,% LAC,boar spermatozoa [2]; [7],21%
same,% MAR (second value of NAR-MAR-MAR-LAC),boar spermatozoa [2]; [7],39%
same,% MAR (third value of NAR-MAR-MAR-LAC),boar spermatozoa [2]; [7],03%
same,% NAR,boar spermatozoa [2]; [7],37%
same,% DAR,boar spermatozoa [2]; [4],12%
same,% LAC,boar spermatozoa [2]; [4],03%
same,% MAR,boar spermatozoa [2]; [4],01%
same,% motile sperm,boar spermatozoa [2]; [4],80%
same,% DAR,boar spermatozoa [2]; [8],12%
same,% LAC,boar spermatozoa [2]; [8],03%
same,% MAR,boar spermatozoa [2]; [8],00%
same,% NAR,boar spermatozoa [2]; [8],85%
same,% DAR,boar spermatozoa [2]; [9],14%
same,% LAC,boar spermatozoa [2]; [9],02%
same,% MAR,boar spermatozoa [2]; [9],01%
same,% NAR,boar spermatozoa [2]; [9],83%
same,% motile sperm,boar spermatozoa [2]; [9],80%
same,% DAR,boar spermatozoa [2]; [10],12%
same,% LAC,boar spermatozoa [2]; [10],02%
same,% MAR,boar spermatozoa [2]; [10],02%
same,% NAR,boar spermatozoa [2]; [10],84%
same,% motile sperm,boar spermatozoa [2]; [10],80%
same,% DAR,boar spermatozoa [2]; [11],12%
same,% LAC,boar spermatozoa [2]; [11],02%
same,% MAR,boar spermatozoa [2]; [11],01%
same,% NAR,boar spermatozoa [2]; [11],85%
same,% DAR,boar spermatozoa [2]; [12],10%
same,% LAC,boar spermatozoa [2]; [12],03%
same,% MAR,boar spermatozoa [2]; [12],00%
same,% NAR,boar spermatozoa [2]; [12],87%
same,% DAR,boar spermatozoa [2]; [13],16%
same,% LAC,boar spermatozoa [2]; [13],06%
same,% MAR,boar spermatozoa [2]; [13],01%
same,% NAR,boar spermatozoa [2]; [13],77%
same,% motile sperm,boar spermatozoa [2]; [13],80%
same,% DAR,boar spermatozoa [2]; [14],09%
same,% LAC,boar spermatozoa [2]; [14],03%
same,% MAR,boar spermatozoa [2]; [14],01%
same,% NAR,boar spermatozoa [2]; [14],87%
same,% motile sperm,boar spermatozoa [2]; [14],80%
same,% DAR,boar spermatozoa [2]; [15],21%
same,% LAC,boar spermatozoa [2]; [15],06%
same,% MAR,boar spermatozoa [2]; [15],01%
same,% NAR,boar spermatozoa [2]; [15],72%
same,% DAR,boar spermatozoa [2]; [16],10%
same,% LAC,boar spermatozoa [2]; [16],05%
same,% MAR,boar spermatozoa [2]; [16],00%
same,% NAR,boar spermatozoa [2]; [16],85%
same,% DAR,boar spermatozoa [2]; [17],20%
same,% LAC,boar spermatozoa [2]; [17],05%
same,% MAR,boar spermatozoa [2]; [17],02%
same,% NAR,boar spermatozoa [2]; [17],73%
same,% motile sperm,boar spermatozoa [2]; [17],80%
same,% DAR,boar spermatozoa [2]; [18],13%
same,% LAC,boar spermatozoa [2]; [18],04%
same,% MAR,boar spermatozoa [2]; [18],01%
same,% NAR,boar spermatozoa [2]; [18],82%
same,% motile sperm,boar spermatozoa [2]; [18],80%
same,% DAR,boar spermatozoa [2]; [19],24%
same,% LAC,boar spermatozoa [2]; [19],05%
same,% MAR,boar spermatozoa [2]; [19],01%
same,% NAR,boar spermatozoa [2]; [19],70%
same,% DAR,boar spermatozoa [2]; [20],12%
same,% LAC,boar spermatozoa [2]; [20],08%
same,% MAR,boar spermatozoa [2]; [20],01%
same,% NAR,boar spermatozoa [2]; [20],79%
same,% DAR,boar spermatozoa [2]; [5],24%
same,% LAC,boar spermatozoa [2]; [5],08%
same,% MAR,boar spermatozoa [2]; [5],01%
same,% NAR,boar spermatozoa [2]; [5],67%
same,% DAR,boar spermatozoa [2]; [21],24%
same,% LAC,boar spermatozoa [2]; [21],08%
same,% MAR,boar spermatozoa [2]; [21],02%
same,% NAR,boar spermatozoa [2]; [21],66%
